In patent US9376436B2, “2-(pyridin-2yl)-1, 7-diaza-spiro [4.4] nonane-6-one compound as voltage-gated sodium channels modulators” (CONVERGENCE PHARMACEUTICALS LIMITED, priority 2011, dated 2016):
Structures can show the parent of a compound that is named as a salt. Where two headings read alike, the source gives them in different places.

Target: T1, hNaV1.7 (Homo sapiens, UniProt Q15858)
T1 construct: expressed in transfected cells; host or cells: HEK293
Assay: QPatch NaV1.7 assay (whole-cell patch clamp, QPatch16x)
Type: cell-based
Settings: HEK293-hNaV1.7 cells
Procedure, shortened: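 HEK293 cells expressing hNaV1.7 recorded by automated whole-cell patch clamp (CsF internal, pH 7.3). Peak currents from 20 ms steps to 0 mV measured at holding potentials of −90 mV and V1/2 SSI; four-point cumulative concentrations, 120 s each, Hill fits gave pIC50 at each potential.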

[1] = holding voltage V1/2 SSI (half of channels inactivated), read-out: QP Nav1.7 SSI vhalf pIC50 (converted)
[2] = holding voltage −90 mV (most channels closed), read-out: QP Nav1.7 −90 mV pIC50 (converted)

T1 sequence (Q15858 whole entry): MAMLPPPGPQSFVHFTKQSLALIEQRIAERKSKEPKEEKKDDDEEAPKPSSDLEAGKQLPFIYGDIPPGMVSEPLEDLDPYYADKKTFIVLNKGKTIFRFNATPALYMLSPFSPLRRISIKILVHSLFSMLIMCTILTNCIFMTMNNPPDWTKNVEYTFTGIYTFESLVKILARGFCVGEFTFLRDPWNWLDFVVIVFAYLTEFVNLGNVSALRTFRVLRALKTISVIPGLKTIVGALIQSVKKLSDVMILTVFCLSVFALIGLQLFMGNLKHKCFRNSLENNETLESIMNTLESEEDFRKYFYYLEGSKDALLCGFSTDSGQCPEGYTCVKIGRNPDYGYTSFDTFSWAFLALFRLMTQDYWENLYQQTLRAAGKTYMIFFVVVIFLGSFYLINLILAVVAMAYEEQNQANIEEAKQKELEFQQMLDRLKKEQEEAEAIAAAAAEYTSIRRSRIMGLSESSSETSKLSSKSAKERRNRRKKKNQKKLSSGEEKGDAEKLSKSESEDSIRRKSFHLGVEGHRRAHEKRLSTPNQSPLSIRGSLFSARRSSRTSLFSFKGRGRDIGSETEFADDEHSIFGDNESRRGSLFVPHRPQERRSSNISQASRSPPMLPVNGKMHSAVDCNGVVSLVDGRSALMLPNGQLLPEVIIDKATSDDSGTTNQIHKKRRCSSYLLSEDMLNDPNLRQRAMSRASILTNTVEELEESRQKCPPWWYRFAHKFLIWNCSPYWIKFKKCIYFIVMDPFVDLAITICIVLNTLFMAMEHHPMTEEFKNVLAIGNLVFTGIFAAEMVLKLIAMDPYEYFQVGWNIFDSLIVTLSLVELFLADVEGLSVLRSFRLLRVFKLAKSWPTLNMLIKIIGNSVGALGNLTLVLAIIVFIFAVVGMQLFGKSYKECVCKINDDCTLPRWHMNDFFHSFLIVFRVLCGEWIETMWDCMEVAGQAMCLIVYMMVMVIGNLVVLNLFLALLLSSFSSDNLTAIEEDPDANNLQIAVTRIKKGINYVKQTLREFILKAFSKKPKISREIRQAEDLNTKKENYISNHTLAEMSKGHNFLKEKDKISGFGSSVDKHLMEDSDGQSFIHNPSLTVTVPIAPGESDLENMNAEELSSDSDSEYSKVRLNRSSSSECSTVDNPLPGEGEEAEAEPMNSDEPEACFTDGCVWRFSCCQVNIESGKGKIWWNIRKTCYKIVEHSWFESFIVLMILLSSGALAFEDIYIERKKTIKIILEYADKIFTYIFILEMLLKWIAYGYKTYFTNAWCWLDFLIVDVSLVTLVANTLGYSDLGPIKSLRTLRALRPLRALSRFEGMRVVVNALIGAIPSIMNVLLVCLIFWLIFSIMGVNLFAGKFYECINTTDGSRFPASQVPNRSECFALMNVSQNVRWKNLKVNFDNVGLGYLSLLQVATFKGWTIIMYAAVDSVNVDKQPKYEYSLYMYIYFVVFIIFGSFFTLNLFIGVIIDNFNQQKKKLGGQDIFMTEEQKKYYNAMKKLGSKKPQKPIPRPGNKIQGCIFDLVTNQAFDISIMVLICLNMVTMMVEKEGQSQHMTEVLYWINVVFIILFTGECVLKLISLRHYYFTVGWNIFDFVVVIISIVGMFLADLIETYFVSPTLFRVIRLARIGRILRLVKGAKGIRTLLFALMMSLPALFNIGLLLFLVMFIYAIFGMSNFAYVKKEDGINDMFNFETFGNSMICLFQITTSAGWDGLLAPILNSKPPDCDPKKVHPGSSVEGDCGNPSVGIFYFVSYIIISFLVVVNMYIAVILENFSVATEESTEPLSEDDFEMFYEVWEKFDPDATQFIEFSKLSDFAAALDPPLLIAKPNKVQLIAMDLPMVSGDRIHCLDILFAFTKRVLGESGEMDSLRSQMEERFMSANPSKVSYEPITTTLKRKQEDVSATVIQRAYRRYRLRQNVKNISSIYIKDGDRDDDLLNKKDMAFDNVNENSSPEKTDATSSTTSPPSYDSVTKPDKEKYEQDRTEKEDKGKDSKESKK

Compound	IC50 [1]	IC50 [2]
CN1CC[C@@]2(CC[C@H](c3cc(-c4cccc(C(F)(F)F)c4)ccn3)N2)C1=O [Example 75, (2R,5S)-7-Methyl-2-[4-[3-(trifluoromethyl)phenyl]-2-pyridyl]-1,7-diazaspiro[4.4]nonan-6-one hydrochloride]	20 µM	126 µM
CN1CC[C@@]2(CC[C@H](c3cc(-c4cc(F)cc(F)c4)ccn3)N2)C1=O [Example 77, (2R,5S)-2-[4-(3,5-Difluorophenyl)-2-pyridyl]-7-methyl-1,7-diazaspiro[4.4]nonan-6-one hydrochloride]	31.6 µM	316 µM
Cc1cscc1-c1ccnc([C@H]2CC[C@@]3(CCN(C)C3=O)N2)c1 [Example 78, (2R,5S)-7-Methyl-2-[4-(4-methyl-3-thienyl)-2-pyridyl]-1,7-diazaspiro[4.4]nonan-6-one hydrochloride]	12.6 µM	158 µM
COc1cccc(-c2ccnc([C@H]3CC[C@@]4(CCN(C)C4=O)N3)c2)c1Cl [Example 80, (2R,5S)-2-[4-(2-Chloro-3-methoxy-phenyl)-2-pyridyl]-7-methyl-1,7-diazaspiro[4.4]nonan-6-one hydrochloride]	200 µM	316 µM
CN1CC[C@@]2(CC[C@H](c3cc(-c4cccc5c4OC(F)(F)O5)ccn3)N2)C1=O [Example 81, (2R,5S)-2-[4-(2,2-Difluoro-1,3-benzodioxol-4-yl)-2-pyridyl]-7-methyl-1,7-diazaspiro[4.4]nonan-6-one hydrochloride]	3.16 µM	200 µM
CCOc1cccc(-c2ccnc([C@H]3CC[C@@]4(CCN(C)C4=O)N3)c2)c1 [Example 82, (2R,5S)-2-[4-(3-Ethoxyphenyl)-2-pyridyl]-7-methyl-1,7-diazaspiro[4.4]nonan-6-one hydrochloride]	7.94 µM	200 µM
CN1CC[C@@]2(CC[C@H](c3cc(-c4cc(OC(F)F)ccc4F)ccn3)N2)C1=O [Example 84, (2R,5S)-2-[4-[5-(Difluoromethoxy)-2-fluoro-phenyl]-2-pyridyl]-7-methyl-1,7-diazaspiro[4.4]nonan-6-one hydrochloride]	20 µM	200 µM

Second part, the molecule after the results:

IC50 [1]	IC50 [2]	Compound
3.98 µM	63.1 µM	CCOc1ccc(-c2ccnc([C@H]3CC[C@@]4(CCN(C)C4=O)N3)c2)cc1 [Example 76, (2R,5S)-2-[4-(4-Ethoxyphenyl)-2-pyridyl]-7-methyl-1,7-diazaspiro[4.4]nonan-6-one hydrochloride]
31.6 µM	398 µM	CN1CC[C@@]2(CC[C@H](c3cc(-c4ccc5c(ccn5C)c4)ccn3)N2)C1=O [Example 79, (2R,5S)-7-Methyl-2-[4-(1-methylindol-5-yl)-2-pyridyl]-1,7-diazaspiro[4.4]nonan-6-one hydrochloride]
31.6 µM	200 µM	COc1ccc(Cl)c(-c2ccnc([C@H]3CC[C@@]4(CCN(C)C4=O)N3)c2)c1 [Example 83, (2R,5S)-2-[4-(2-Chloro-5-methoxy-phenyl)-2-pyridyl]-7-methyl-1,7-diazaspiro[4.4]nonan-6-one hydrochloride]
0.316 µM	10 µM	Cc1cc(-c2ccc(OC(C)C)cc2)cc([C@H]2CC[C@@]3(CCN(C)C3=O)N2)n1 [Example 85, (2R,5S)-2-[4-(4-Isopropoxyphenyl)-6-methyl-2-pyridyl]-7-methyl-1,7-diazaspiro[4.4]nonan-6-one hydrochloride]
10 µM	100 µM	Cc1cc(-c2ccc(OC(C)C)cc2)cc([C@@H]2CC[C@@]3(CCN(C)C3=O)N2)n1 [Example 86, (2S,5S)-2-[4-(4-Isopropoxyphenyl)-6-methyl-2-pyridyl]-7-methyl-1,7-diazaspiro[4.4]nonan-6-one hydrochloride]
6.31 µM	126 µM	Cc1ccc(-c2cc(C)nc([C@H]3CC[C@@]4(CCN(C)C4=O)N3)c2)cc1 [Example 87, (2R,5S)-7-Methyl-2-[6-methyl-4-(p-tolyl)-2-pyridyl]-1,7-diazaspiro[4.4]nonan-6-one hydrochloride]
